Laboratory results reported in PubChem BioAssay (NCI).
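Values below derive from 48-hour exposures of cells grown in 96-well plates, with endpoints linearly interpolated between the two concentrations bracketing the appropriate inhibition level. Here, GI50 denotes the concentration required for 50% inhibition of growth. Definition used: TGI = concentration required for complete inhibition of growth.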

What was measured:
Experiment in all cases: growth of human tumour cells (NCI), 48 h
U251 CNS = system: U251 CNS
OVCAR-5 ovarian = system: OVCAR-5 ovarian
IGROV1 ovarian = system: IGROV1 ovarian
SNB-19 CNS = system: SNB-19 CNS
SN12C renal = system: SN12C renal
LOX IMVI melanoma = system: LOX IMVI melanoma
MOLT-4 leukemia = system: MOLT-4 leukemia
SK-OV-3 ovarian = system: SK-OV-3 ovarian
HOP-62 NSCLC = system: HOP-62 NSCLC
SK-MEL-2 melanoma = system: SK-MEL-2 melanoma
MDA-N = system: MDA-N

Structure (SMILES) | TGI (U251 CNS) | TGI (OVCAR-5 ovarian) | TGI (IGROV1 ovarian) | TGI (SNB-19 CNS) | TGI (SN12C renal) | TGI (LOX IMVI melanoma) | TGI (MOLT-4 leukemia) | TGI (SK-OV-3 ovarian) | TGI (HOP-62 NSCLC) | TGI (SK-MEL-2 melanoma) | TGI (MDA-N) | GI50 (IGROV1 ovarian) | GI50 (LOX IMVI melanoma)
COc1cc2c(cc1OCCCCCCCCN1C(=O)c3cccc4cccc(c34)C1=O)N=C[C@@H]1CCCN1C2=O | 25.3 µM | 66.2 µM | 64.7 µM | > 100 µM | 63.9 µM | 25.5 µM | 9.42 µM | 9.72 µM | > 100 µM | 74.6 µM |  |  | 
N#Cc1c(N)nc2c(c1-c1ccc(Br)cc1)CSc1ccccc1-2 | > 100 µM |  | > 100 µM | > 100 µM | > 100 µM | > 100 µM | > 100 µM | > 100 µM | > 100 µM | > 100 µM | > 100 µM |  | 
Cc1cnoc1NS(=O)(=O)c1ccc(Nc2nnc(/C=C/c3c(O)ccc4ccccc34)c(=O)n2N)cc1 |  | 77.9 µM | > 100 µM | > 100 µM | 95.3 µM | 53.9 µM | > 100 µM | > 100 µM | > 100 µM |  | 82.2 µM |  | 
COc1ccc(C2c3cc4c(cc3OC(O)(CO)C2C(=O)O)OCO4)cc1 (configuration not stated) (tested in a mixture with another compound) | 36.5 µM | > 100 µM | 43.5 µM |  | 54.1 µM | 30.1 µM | 57.8 µM | 98.5 µM | > 100 µM | 71.8 µM |  |  | 
COc1cc([C@@H]2c3cc4c(cc3[C@@H](c3c(O)cc(O)c5c3O[C@H](c3ccc(O)c(O)c3)[C@H](OC(=O)c3cc(O)c(O)c(O)c3)C5)[C@H]3COC(=O)[C@H]23)OCO4)cc(OC)c1OC | > 100 µM | > 100 µM | > 100 µM | > 100 µM | > 100 µM | > 100 µM | > 100 µM | > 100 µM | > 100 µM | > 100 µM | > 100 µM |  | 
O=c1c2ccccc2[nH]c(=S)n1-c1ccc(N=Nc2cccc3cc(O)ccc23)cc1 | > 100 µM | > 100 µM | > 100 µM | > 100 µM | > 100 µM | > 100 µM | > 100 µM | > 100 µM | > 100 µM | > 100 µM | > 100 µM |  | 
O=C1CC2(CCC(O)(c3cccs3)C(C(=O)c3cccs3)C2)C(=O)c2ccccc2N1 (configuration not stated) | > 100 µM | > 100 µM | > 100 µM |  | > 100 µM | > 100 µM | > 100 µM | > 100 µM | > 100 µM | > 100 µM | > 100 µM |  | 
O=C1c2ccccc2C(C2c3ccccc3C(=O)c3cc(Br)ccc32)c2ccc(Br)cc21 (configuration not stated) | > 100 µM | > 100 µM | > 100 µM | > 100 µM | > 100 µM | > 100 µM | > 100 µM | > 100 µM | > 100 µM |  | > 100 µM |  | 
COC1CC(CC2CCC(C)C(C(C)C(=O)O)O2)OC2(OC(C)(C3CCC(C)(C4OC(C5OC(O)(CO)C(C)CC5C)CC4C)O3)CC2C)C1C (configuration not stated) | 11.9 µM | 69.6 µM | 66.9 µM | 5.67 µM | 23.7 µM | 9.81 µM | 6.13 µM | 46.3 µM | 19.6 µM | 5.22 µM | 4.99 µM |  | 
CC(C)(C)[Si](C)(C)OCC1OC(n2cnc3c(N)ncnc32)CC1OS(C)(=O)=O (configuration not stated) | > 100 µM | > 100 µM | > 100 µM | > 100 µM | > 100 µM | > 100 µM | > 100 µM | > 100 µM | > 100 µM | > 100 µM | > 100 µM |  | 
Nc1ccc(-c2nc3cc(F)ccc3s2)cc1CO | 41.5 µM | > 100 µM | 63.4 µM | > 90.6 µM | > 100 µM | > 100 µM | > 100 µM | 49.3 µM | 52.1 µM | > 62.9 µM | > 100 µM |  | 
CCOC(=O)C(=O)NCCCN1CCOCC1 | > 100 µM | > 100 µM | > 100 µM | > 100 µM | > 100 µM | > 100 µM | > 100 µM | > 100 µM | > 100 µM | > 100 µM |  |  | 
CCCSc1ccc2[nH]c(N3C(=O)/C(=C/c4cc(OC)c(OC)c(OC)c4)N=C3c3ccccc3)cc2c1 | > 37.5 µM | > 37.5 µM | > 37.5 µM | > 37.5 µM | > 37.5 µM | > 37.5 µM | > 37.5 µM | > 25.3 µM | > 19.2 µM | > 37.5 µM | 12.3 µM |  | 
COC(=S)OC1CC(n2cnc3c(N)ncnc32)OC1CO[Si](C)(C)C(C)(C)C (configuration not stated) | 28.1 µM | 65.4 µM | 43.8 µM | > 100 µM | 48.6 µM | > 100 µM | > 100 µM | 60.1 µM | 32.8 µM | 53.8 µM | 46.7 µM |  | 
COC(=O)C[C@H](COCc1ccccc1)NC(=O)C[C@H](COCc1ccccc1)NC(=O)OC(C)(C)C | 67.7 µM | 99.8 µM | > 100 µM | 44.2 µM | 80.6 µM | > 100 µM | > 100 µM | 59.8 µM | 49.2 µM | > 100 µM |  |  | 
O=C(O)C(O)C(O)C(O)C(=O)CO (configuration not stated) | > 100 µM | > 100 µM | > 100 µM | > 100 µM | > 100 µM | > 100 µM | > 100 µM | > 100 µM | > 100 µM | > 100 µM | > 100 µM |  | 
O=C1/C(=C\c2ccc(F)cc2)CCOc2c1ccc1ccccc21 | > 100 µM | 42.3 µM | > 100 µM | > 100 µM | > 89.2 µM | 38.4 µM | > 47.8 µM | > 100 µM | 63.8 µM | > 100 µM |  | > 100 µM | 13 µM
Cc1ccccc1NC(=O)CC(=O)N1N=C(N2c3ccccc3Sc3ccccc32)CC1c1ccccc1 (configuration not stated) | > 100 µM | > 100 µM | > 100 µM | > 100 µM | > 100 µM | > 100 µM | > 100 µM | > 100 µM | > 100 µM |  |  |  | 
